Experimental data published in ChEMBL document CHEMBL3301562, “MMV Box screening against Plasmodium falciparum protein kinases and aminoacyl tRNA synthetases”.

Columns and labels:
Type in all cases: functional
Proline--tRNA ligase = target: T1, Proline--tRNA ligase (Plasmodium falciparum (isolate 3D7), UniProt Q8I5R7); test: MMV: ProRS recombinant Plasmodium falciparum Prolyl-tRNA-synthetase, assay with yeast tRNA, ATP, and proline and 3 uM MMV malaria box compound, assay read out with kinase glo as % inhibition.
T1 sequence (Q8I5R7 whole entry): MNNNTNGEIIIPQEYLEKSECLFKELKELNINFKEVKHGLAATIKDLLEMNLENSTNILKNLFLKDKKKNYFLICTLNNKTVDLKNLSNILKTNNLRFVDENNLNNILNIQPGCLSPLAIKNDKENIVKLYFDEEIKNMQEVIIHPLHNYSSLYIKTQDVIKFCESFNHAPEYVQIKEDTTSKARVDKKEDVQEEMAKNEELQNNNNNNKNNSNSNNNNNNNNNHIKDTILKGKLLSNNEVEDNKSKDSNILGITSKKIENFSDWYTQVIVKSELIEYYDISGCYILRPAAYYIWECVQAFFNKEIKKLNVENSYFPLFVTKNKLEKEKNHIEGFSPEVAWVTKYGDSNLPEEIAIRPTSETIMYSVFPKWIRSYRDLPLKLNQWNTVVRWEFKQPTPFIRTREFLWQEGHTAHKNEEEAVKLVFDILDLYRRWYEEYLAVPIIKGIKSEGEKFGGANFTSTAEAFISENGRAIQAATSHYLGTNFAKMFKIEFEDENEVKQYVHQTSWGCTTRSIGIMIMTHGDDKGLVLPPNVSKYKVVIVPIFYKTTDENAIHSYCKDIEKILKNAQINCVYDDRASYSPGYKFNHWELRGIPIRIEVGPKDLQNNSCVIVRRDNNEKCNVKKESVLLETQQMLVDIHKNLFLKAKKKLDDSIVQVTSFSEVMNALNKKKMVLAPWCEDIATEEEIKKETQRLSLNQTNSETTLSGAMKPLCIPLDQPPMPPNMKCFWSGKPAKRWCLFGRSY

[1] = target: T2, Mitogen-activated protein kinase (Plasmodium falciparum, UniProt Q25917); test: Final concentrations were 1 uM ATP, 0.5 mM DTT, 1 mM MgCl2, 0.5 mg/mL BSA, and 10 ug/ml MAP2 in a buffer of 50 mM HEPES (pH 7.0). 0.5 mg/mL histone III-S served as the substrate (13); 100 uM AMP-PNP, an ATP analog, was used as a control inhibitor. Incubation time was 4 hours.
T2 sequence (Q25917 whole entry): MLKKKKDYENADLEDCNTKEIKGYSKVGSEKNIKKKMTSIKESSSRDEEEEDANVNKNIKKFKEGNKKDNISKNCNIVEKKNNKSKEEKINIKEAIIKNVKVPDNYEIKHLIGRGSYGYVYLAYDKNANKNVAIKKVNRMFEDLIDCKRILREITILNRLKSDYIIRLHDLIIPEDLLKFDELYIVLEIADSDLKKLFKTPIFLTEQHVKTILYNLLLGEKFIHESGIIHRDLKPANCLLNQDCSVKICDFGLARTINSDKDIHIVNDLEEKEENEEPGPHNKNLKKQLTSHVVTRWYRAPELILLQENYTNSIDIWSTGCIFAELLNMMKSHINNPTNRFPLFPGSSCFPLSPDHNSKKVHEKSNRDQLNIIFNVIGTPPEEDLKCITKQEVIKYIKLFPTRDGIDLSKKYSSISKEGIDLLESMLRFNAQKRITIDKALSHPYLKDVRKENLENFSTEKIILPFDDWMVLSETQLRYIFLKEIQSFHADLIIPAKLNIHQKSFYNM

[2] = target: T3, Putative uncharacterized protein pk7 (Plasmodium falciparum, UniProt O96214); test: Final concentrations were 1 uM ATP, 2 mM DTT, 20 mM MgCl2, 2 mM MnCl2, 0.01% BSA, and 6 ug/ml PK7, in a buffer of 20 mM Tris-HCl (pH 7.5). The enzyme itself was the only substrate present (since autophosphorylation occurs); 100 uM 1NA-PP1 was used as a control inhibitor. Incubation time was 3 hours.
T3 sequence (O96214 whole entry): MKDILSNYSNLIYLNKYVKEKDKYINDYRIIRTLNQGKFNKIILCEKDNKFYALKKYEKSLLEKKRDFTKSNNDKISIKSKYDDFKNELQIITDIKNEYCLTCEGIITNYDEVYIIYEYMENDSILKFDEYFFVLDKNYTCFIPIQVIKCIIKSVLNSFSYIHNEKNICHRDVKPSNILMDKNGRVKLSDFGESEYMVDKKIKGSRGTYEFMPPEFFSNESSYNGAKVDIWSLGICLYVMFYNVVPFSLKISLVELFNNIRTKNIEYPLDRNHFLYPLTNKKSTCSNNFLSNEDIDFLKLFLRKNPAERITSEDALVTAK

Lysine--tRNA ligase = Lysine--tRNA ligase (Plasmodium falciparum (isolate 3D7), UniProt Q8IDJ8); test: MMV: KRS recombinant Plasmodium falciparum Lysyl-tRNA-synthetase, assay with yeast tRNA, ATP, and lysine and 3 uM MMV malaria box compound, assay read out with kinase glo as % inhibition.
[3] = target: T4, Calcium-dependent protein kinase 4 (Plasmodium falciparum (isolate 3D7), UniProt Q8IBS5); test: MMV: CDPK4 Protein kinase inhibition assay using recombinant PfCDPK4, syntide2 peptide substrate, ATP and KinaseGlo to measure % inhibition at 1 uM MMV box compound.
T4 sequence (Q8IBS5 whole entry): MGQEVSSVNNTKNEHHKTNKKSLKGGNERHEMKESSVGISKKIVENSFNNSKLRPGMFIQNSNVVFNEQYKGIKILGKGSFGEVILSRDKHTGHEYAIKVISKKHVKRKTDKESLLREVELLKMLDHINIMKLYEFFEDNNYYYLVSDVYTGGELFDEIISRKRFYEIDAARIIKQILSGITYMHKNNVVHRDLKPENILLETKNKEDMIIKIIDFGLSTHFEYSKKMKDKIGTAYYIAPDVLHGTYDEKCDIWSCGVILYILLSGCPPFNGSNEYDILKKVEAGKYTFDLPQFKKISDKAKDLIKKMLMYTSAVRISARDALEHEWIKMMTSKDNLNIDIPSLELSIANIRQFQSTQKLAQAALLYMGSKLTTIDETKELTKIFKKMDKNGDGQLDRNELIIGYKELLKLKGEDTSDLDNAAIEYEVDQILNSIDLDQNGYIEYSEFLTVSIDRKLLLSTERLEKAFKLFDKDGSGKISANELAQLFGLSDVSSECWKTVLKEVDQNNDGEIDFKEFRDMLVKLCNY

[4] = target: T5, Cdk-related protein kinase 6 (Plasmodium falciparum, UniProt O77239); test: Final concentrations were 1.5 uM ATP, 5 mM MnCl2, and 15 ug/ml PK6 in a buffer of 100 mM Tris-HCl (pH 7.5). 50 ug/mL MBP was provided as the substrate; 10 uM staurosporine was used as a control inhibitor. Incubation time was 3 hours and 40 minutes.The catalytic activity of each kinase was considered proportional to ATP consumed, as determined from measurements of residual [ATP] with the luciferase-based reagent Kinase-Glo (Promega) following incubation. Luminescence (proportional to residual [ATP]) was measured on the plate readers FLx800 (BioTek Instruments, Winooski, VT, USA) and MicroBeta2.
T5 sequence (O77239 whole entry): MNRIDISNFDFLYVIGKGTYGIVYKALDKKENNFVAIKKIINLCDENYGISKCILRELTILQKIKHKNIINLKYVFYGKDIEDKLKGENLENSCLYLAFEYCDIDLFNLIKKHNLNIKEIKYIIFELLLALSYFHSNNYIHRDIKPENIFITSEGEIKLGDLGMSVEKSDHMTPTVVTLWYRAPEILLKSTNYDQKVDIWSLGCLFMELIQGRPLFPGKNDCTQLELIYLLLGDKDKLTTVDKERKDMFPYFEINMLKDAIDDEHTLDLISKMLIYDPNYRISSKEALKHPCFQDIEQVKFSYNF

[5] = target: Calcium-dependent protein kinase 1 (Plasmodium falciparum, UniProt P62344); test: MMV: CDPK1 Protein kinase inhibition assay using recombinant PfCDPK1, syntide 2 peptide substrate, ATP and KinaseGlo to measure % inhibition at 1 uM MMV box compound.
Calcium-dependent protein kinase 1, sequence (P62344 whole entry): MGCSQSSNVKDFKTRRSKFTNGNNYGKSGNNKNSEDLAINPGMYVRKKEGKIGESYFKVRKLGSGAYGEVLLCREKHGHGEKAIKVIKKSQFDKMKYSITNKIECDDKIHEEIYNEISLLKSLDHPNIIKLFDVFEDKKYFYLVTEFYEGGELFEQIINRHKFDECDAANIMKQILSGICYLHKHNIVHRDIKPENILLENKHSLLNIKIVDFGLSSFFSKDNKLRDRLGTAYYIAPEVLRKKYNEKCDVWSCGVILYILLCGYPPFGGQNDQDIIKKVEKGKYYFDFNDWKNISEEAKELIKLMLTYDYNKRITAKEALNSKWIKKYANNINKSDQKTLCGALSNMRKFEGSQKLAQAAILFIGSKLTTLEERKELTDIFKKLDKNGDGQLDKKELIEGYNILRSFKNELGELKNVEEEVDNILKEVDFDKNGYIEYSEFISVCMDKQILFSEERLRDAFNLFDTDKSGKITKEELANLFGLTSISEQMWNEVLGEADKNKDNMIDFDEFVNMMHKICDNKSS

Lysine--tRNA ligase, sequence (Q8IDJ8 whole entry): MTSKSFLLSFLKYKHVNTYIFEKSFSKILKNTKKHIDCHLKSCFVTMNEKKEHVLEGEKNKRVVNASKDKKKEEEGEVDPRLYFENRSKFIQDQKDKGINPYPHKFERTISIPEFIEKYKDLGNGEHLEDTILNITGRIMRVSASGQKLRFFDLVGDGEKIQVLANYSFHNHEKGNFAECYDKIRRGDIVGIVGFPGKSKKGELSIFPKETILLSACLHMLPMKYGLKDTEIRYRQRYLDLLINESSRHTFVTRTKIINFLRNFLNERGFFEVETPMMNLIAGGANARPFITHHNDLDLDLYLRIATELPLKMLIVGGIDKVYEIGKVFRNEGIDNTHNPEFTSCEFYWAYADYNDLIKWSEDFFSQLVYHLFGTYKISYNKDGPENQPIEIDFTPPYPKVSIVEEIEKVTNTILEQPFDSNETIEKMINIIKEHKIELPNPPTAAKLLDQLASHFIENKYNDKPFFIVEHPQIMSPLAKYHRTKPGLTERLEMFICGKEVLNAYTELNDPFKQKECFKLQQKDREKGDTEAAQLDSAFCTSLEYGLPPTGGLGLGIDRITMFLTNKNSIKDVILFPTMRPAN

Structure (SMILES): Cn1c(C(=O)c2cccc3ccccc23)nc2ccccc21
- IC50 (Proline--tRNA ligase): > 2500 nM
- IC50 [1]: > 1000 nM
- IC50 [2]: > 1000 nM
- IC50 (Lysine--tRNA ligase): > 2500 nM
- IC50 [3]: > 1000 nM
- IC50 [4]: > 1000 nM
- IC50 [5]: > 1000 nM

Structure (SMILES): O=C(Nc1ccc(-c2nc3ccccc3[nH]2)cc1)c1ccc(Cl)c(Cl)c1
- IC50 (Proline--tRNA ligase): > 2500 nM
- IC50 [1]: > 1000 nM
- IC50 [2]: > 1000 nM
- IC50 (Lysine--tRNA ligase): > 2500 nM
- IC50 [3]: > 1000 nM
- IC50 [4]: > 1000 nM
- IC50 [5]: > 1000 nM

Structure (SMILES): Nc1ccc(-c2nc3cc(Oc4ccc(Oc5ccc6[nH]c(-c7ccc(N)cc7)nc6c5)cc4)ccc3[nH]2)cc1
- IC50 (Proline--tRNA ligase): > 2500 nM
- IC50 [1]: > 1000 nM
- IC50 [2]: > 1000 nM
- IC50 (Lysine--tRNA ligase): > 2500 nM
- IC50 [3]: > 1000 nM
- IC50 [4]: > 1000 nM
- IC50 [5]: > 1000 nM

Structure (SMILES): Cc1cc(N(C)C)nc(Nc2ccc(NC(=O)Nc3ccccc3)cc2)n1
- IC50 (Proline--tRNA ligase): > 2500 nM
- IC50 [1]: > 1000 nM
- IC50 [2]: > 1000 nM
- IC50 (Lysine--tRNA ligase): > 2500 nM
- IC50 [3]: > 1000 nM
- IC50 [4]: > 1000 nM
- IC50 [5]: > 1000 nM

Structure (SMILES): COc1cc(C(=O)ON=C(N)Cc2cccc3ccccc23)cc(OC)c1OC
- IC50 (Proline--tRNA ligase): > 2500 nM
- IC50 [1]: > 1000 nM
- IC50 [2]: > 1000 nM
- IC50 (Lysine--tRNA ligase): > 2500 nM
- IC50 [3]: > 1000 nM
- IC50 [4]: > 1000 nM
- IC50 [5]: > 1000 nM

Structure (SMILES): Oc1c(C(Nc2ccccn2)c2cccc(Oc3ccccc3)c2)ccc2cccnc12 (configuration not stated)
- IC50 (Proline--tRNA ligase): > 2500 nM
- IC50 [1]: > 1000 nM
- IC50 [2]: > 1000 nM
- IC50 (Lysine--tRNA ligase): > 2500 nM
- IC50 [3]: > 1000 nM
- IC50 [4]: > 1000 nM
- IC50 [5]: > 1000 nM

Structure (SMILES): Cc1ccc(Nc2nc(N)c3ccccc3n2)cc1Cl
- IC50 (Proline--tRNA ligase): > 2500 nM
- IC50 [1]: > 1000 nM
- IC50 [2]: > 1000 nM
- IC50 (Lysine--tRNA ligase): > 2500 nM
- IC50 [3]: > 1000 nM
- IC50 [4]: > 1000 nM
- IC50 [5]: > 1000 nM

Structure (SMILES): CCn1c2c(c(=N)c3c1CCC3)CCCC2
- IC50 (Proline--tRNA ligase): > 2500 nM
- IC50 [1]: > 1000 nM
- IC50 [2]: > 1000 nM
- IC50 (Lysine--tRNA ligase): > 2500 nM
- IC50 [3]: > 1000 nM
- IC50 [4]: > 1000 nM
- IC50 [5]: > 1000 nM

Structure (SMILES): Cc1ccc2c(C)nc(Nc3nc(C)cc(-c4ccccc4)n3)nc2c1
- IC50 (Proline--tRNA ligase): > 2500 nM
- IC50 [1]: > 1000 nM
- IC50 [2]: > 1000 nM
- IC50 (Lysine--tRNA ligase): > 2500 nM
- IC50 [3]: > 1000 nM
- IC50 [4]: > 1000 nM
- IC50 [5]: > 1000 nM

Structure (SMILES): CCOc1ccc(Nc2ccnc3cc(Cl)ccc23)cc1
- IC50 (Proline--tRNA ligase): > 2500 nM
- IC50 [1]: > 1000 nM
- IC50 [2]: > 1000 nM
- IC50 (Lysine--tRNA ligase): > 2500 nM
- IC50 [3]: > 1000 nM
- IC50 [4]: > 1000 nM
- IC50 [5]: > 1000 nM

Structure (SMILES): CCCn1c(=N)c(C(=O)NC2CCCCC2)cc2c(=O)n3cccc(C)c3nc21
- IC50 (Proline--tRNA ligase): > 2500 nM
- IC50 [1]: > 1000 nM
- IC50 [2]: > 1000 nM
- IC50 (Lysine--tRNA ligase): > 2500 nM
- IC50 [3]: > 1000 nM
- IC50 [4]: > 1000 nM
- IC50 [5]: > 1000 nM
